Tested on: mRNA expressed from the genes (A) to (D) in rat liver
Test: Behavior of genes (mRNA expression level, oligo-DNA microarray) in rat liver after 28-day oral administration
Format: in vivo
Description: A test solution was prepared by dissolving each of the carcinogens and the non-carcinogens shown in Tables 2 to 6 in the corresponding solvent shown in Tables 2 to 6. Each of the thus prepared test solutions and the solvents used for the preparation was administered by oral gavage to rats in each group. As the rats, male rats (F344 SPF rats) at 5 weeks of age obtained from Charles River Laboratories Japan, Inc. were used. The animals were divided into groups, each containing four individuals. The volume of the solvent administered to the vehicle control group was set to the same volume as that of the test solution administered to the carcinogen administration group or the non-carcinogen administration group. The administration of the test solution or the solvent was performed once daily for 28 days. Apiece was excised from the liver of each of the rats after a lapse of 28 days from the initiation of the administration, and the total RNA was extracted and purified.
The expression level of mRNA was compared between each of the chemical substance administration groups and the corresponding vehicle control group, and genes that satisfy the requirements described in (A) to (D) were selected, respectively.
The case where the expression level of mRNA in the carcinogen administration group or the non-carcinogen administration group is 1.5 times or more or 1/1.5 or less of the expression level of the corresponding mRNA expressed in the control group was determined to be significant. In this connection, the determination as to whether or not the change is significant was performed by taking into consideration the direction of increase or decrease in the expression level. In the case where the direction of increase or decrease is different as compared with the case where another carcinogen was administered, the change was determined to be not significant.

[1] = gene group (A), Unigene No. Rn.167075
[2] = gene group (C), Unigene No. Rn.120914
[3] = (C), Unigene Rn.120914, defined direction +, rat liver, oral once daily 28 days

O=C1O[C@H]([C@@H](O)CO)C(O)=C1O [TS010, L-Ascorbic acid]
+: Behavior of gene caused by administration of chemical substance, Gene No. 1131 (gene group (C), Unigene No. Rn.144946)
−: Behavior of gene caused by administration of chemical substance, Gene No. 4846 (gene group (A), Unigene No. Rn.144554) | Behavior of gene caused by administration of chemical substance, Gene No. 2026 [1] | Behavior of gene caused by administration of chemical substance, Gene No. 4218 [1] | Behavior of gene caused by administration of chemical substance, Gene No. 6182 (gene group (A), Unigene No. Rn.5834) | Behavior of gene caused by administration of chemical substance, Gene No. 5600 (gene group (A), Unigene No. Rn.9836) | Behavior of gene caused by administration of chemical substance, Gene No. 1494 (gene group (B), Unigene No. Rn.1430) | Behavior of gene caused by administration of chemical substance, Gene No. 2045 (gene group (B), Unigene No. Rn.19329) | Behavior of gene caused by administration of chemical substance, Gene No. 2203 (gene group (B), Unigene No. Rn.21240) | Behavior of gene caused by administration of chemical substance, Gene No. 533 (gene group (C), Unigene No. Rn.106184) | Behavior of gene caused by administration of chemical substance, Gene No. 725 (gene group (C), Unigene No. Rn.108075) | Behavior of gene caused by administration of chemical substance, Gene No. 1163 (gene group (C), Unigene No. Rn.11766) | Behavior of gene caused by administration of chemical substance, Gene No. 4973 (gene group (C), Unigene No. Rn.118529) | Behavior of gene caused by administration of chemical substance, Gene No. 4095 (gene group (C), Unigene No. Rn.119024) | Behavior of gene caused by administration of chemical substance, Gene No. 1334 [2] | Behavior of gene caused by administration of chemical substance, Gene No. 6620 [2] | Behavior of gene caused by administration of chemical substance, Gene No. 6303 (gene group (C), Unigene No. Rn.123063) | Behavior of gene caused by administration of chemical substance, Gene No. 5878 (gene group (C), Unigene No. Rn.143213) | Behavior of gene caused by administration of chemical substance, Gene No. 1562 (gene group (C), Unigene No. Rn.14744) | Behavior of gene caused by administration of chemical substance, Gene No. 1741 (gene group (C), Unigene No. Rn.1647) | Behavior of gene caused by administration of chemical substance, Gene No. 893 (gene group (C), Unigene No. Rn.164817) | Behavior of gene caused by administration of chemical substance, Gene No. 6026 (gene group (C), Unigene No. Rn.167685) | Behavior of gene caused by administration of chemical substance, Gene No. 154 (gene group (C), Unigene No. Rn.185941) | Behavior of gene caused by administration of chemical substance, Gene No. 1993 (gene group (C), Unigene No. Rn.18728) | Behavior of gene caused by administration of chemical substance, Gene No. 813 (gene group (C), Unigene No. Rn.201760) | Behavior of gene caused by administration of chemical substance, Gene No. 2494 (gene group (C), Unigene No. Rn.23969) | Behavior of gene caused by administration of chemical substance, Gene No. 2546 (gene group (C), Unigene No. Rn.24561) | Behavior of gene caused by administration of chemical substance, Gene No. 3776 (gene group (C), Unigene No. Rn.43232) | Behavior of gene caused by administration of chemical substance, Gene No. 3929 (gene group (C), Unigene No. Rn.4620) | Behavior of gene caused by administration of chemical substance, Gene No. 1119 (gene group (C), Unigene No. Rn.9757) | Behavior of gene caused by administration of chemical substance, Gene No. 6742 (gene group (C), Unigene No. Rn.9779) | Behavior of gene caused by administration of chemical substance, Gene No. 5634 (gene group (C), Unigene No. Rn.9862) | Behavior of gene caused by administration of chemical substance, Gene No. 5726 (gene group (D), Unigene No. Rn.9939)

CC(C)[N+](=O)[O-] [TS013, 2-Nitropropane]
−: Behavior of gene caused by administration of chemical substance, Gene No. 2045 ((B), Unigene Rn.19329, defined direction +, rat liver, oral once daily 28 days) | Behavior of gene caused by administration of chemical substance, Gene No. 2203 ((B), Unigene Rn.21240, defined direction +, rat liver, oral once daily 28 days) | Behavior of gene caused by administration of chemical substance, Gene No. 1163 ((C), Unigene Rn.11766, defined direction +, rat liver, oral once daily 28 days) | Behavior of gene caused by administration of chemical substance, Gene No. 4095 ((C), Unigene Rn.119024, defined direction −, rat liver, oral once daily 28 days) | Behavior of gene caused by administration of chemical substance, Gene No. 1334 [3] | Behavior of gene caused by administration of chemical substance, Gene No. 6620 [3] | Behavior of gene caused by administration of chemical substance, Gene No. 5878 ((C), Unigene Rn.143213, defined direction −, rat liver, oral once daily 28 days) | Behavior of gene caused by administration of chemical substance, Gene No. 1131 ((C), Unigene Rn.144946, defined direction −, rat liver, oral once daily 28 days) | Behavior of gene caused by administration of chemical substance, Gene No. 1741 ((C), Unigene Rn.1647, defined direction −, rat liver, oral once daily 28 days) | Behavior of gene caused by administration of chemical substance, Gene No. 893 ((C), Unigene Rn.164817, defined direction +, rat liver, oral once daily 28 days) | Behavior of gene caused by administration of chemical substance, Gene No. 6026 ((C), Unigene Rn.167685, defined direction −, rat liver, oral once daily 28 days) | Behavior of gene caused by administration of chemical substance, Gene No. 813 ((C), Unigene Rn.201760, defined direction +, rat liver, oral once daily 28 days) | Behavior of gene caused by administration of chemical substance, Gene No. 2494 ((C), Unigene Rn.23969, defined direction +, rat liver, oral once daily 28 days) | Behavior of gene caused by administration of chemical substance, Gene No. 2546 ((C), Unigene Rn.24561, defined direction −, rat liver, oral once daily 28 days) | Behavior of gene caused by administration of chemical substance, Gene No. 3776 ((C), Unigene Rn.43232, defined direction −, rat liver, oral once daily 28 days) | Behavior of gene caused by administration of chemical substance, Gene No. 3929 ((C), Unigene Rn.4620, defined direction +, rat liver, oral once daily 28 days) | Behavior of gene caused by administration of chemical substance, Gene No. 1119 ((C), Unigene Rn.9757, defined direction +, rat liver, oral once daily 28 days) | Behavior of gene caused by administration of chemical substance, Gene No. 6742 ((C), Unigene Rn.9779, defined direction +, rat liver, oral once daily 28 days) | Behavior of gene caused by administration of chemical substance, Gene No. 5634 ((C), Unigene Rn.9862, defined direction −, rat liver, oral once daily 28 days) | Behavior of gene caused by administration of chemical substance, Gene No. 5726 ((D), Unigene Rn.9939, defined direction −, rat liver, oral once daily 28 days)
+: Behavior of gene caused by administration of chemical substance, Gene No. 4846 ((A), Unigene Rn.144554, defined direction +, rat liver, oral once daily 28 days) | Behavior of gene caused by administration of chemical substance, Gene No. 4218 ((A), Unigene Rn.167075, defined direction +, rat liver, oral once daily 28 days, significant = 1.5 times or more or 1/1.5 or less of control) | Behavior of gene caused by administration of chemical substance, Gene No. 2026 ((A), Unigene Rn.167075, defined direction −, rat liver, oral once daily 28 days) | Behavior of gene caused by administration of chemical substance, Gene No. 6182 ((A), Unigene Rn.5834, defined direction +, rat liver, oral once daily 28 days) | Behavior of gene caused by administration of chemical substance, Gene No. 5600 ((A), Unigene Rn.9836, defined direction +, rat liver, oral once daily 28 days) | Behavior of gene caused by administration of chemical substance, Gene No. 1494 ((B), Unigene Rn.1430, defined direction −, rat liver, oral once daily 28 days) | Behavior of gene caused by administration of chemical substance, Gene No. 533 ((C), Unigene Rn.106184, defined direction +, rat liver, oral once daily 28 days) | Behavior of gene caused by administration of chemical substance, Gene No. 725 ((C), Unigene Rn.108075, defined direction −, rat liver, oral once daily 28 days) | Behavior of gene caused by administration of chemical substance, Gene No. 4973 ((C), Unigene Rn.118529, defined direction −, rat liver, oral once daily 28 days) | Behavior of gene caused by administration of chemical substance, Gene No. 6303 ((C), Unigene Rn.123063, defined direction −, rat liver, oral once daily 28 days) | Behavior of gene caused by administration of chemical substance, Gene No. 1562 ((C), Unigene Rn.14744, defined direction −, rat liver, oral once daily 28 days) | Behavior of gene caused by administration of chemical substance, Gene No. 154 ((C), Unigene Rn.185941, defined direction −, rat liver, oral once daily 28 days) | Behavior of gene caused by administration of chemical substance, Gene No. 1993 ((C), Unigene Rn.18728, defined direction −, rat liver, oral once daily 28 days)
